One data set concerns U2OS ER-Minus cells. The data set is described as follows: IL-6 production in ER-Minus (parental) U2OS osteosarcoma cells. To be noted: 24 h. The format is cell-based, human.
For another data set, the target named is T1, human full-length ER-β (Homo sapiens, UniProt Q92731).
T1 construct: expression vectors for human full-length ER-α or ER-β; expressed in transfected cells
The data set is described as follows: IL-6 production in U2OS osteosarcoma cells stably transfected with ER-β. The format is cell-based.

A further data set has as its target T2, human full-length ER-α (Homo sapiens, UniProt P03372).
T2 construct: expression vectors for human full-length ER-α or ER-β; expressed in transfected cells
T2 sequence (P03372 1-595): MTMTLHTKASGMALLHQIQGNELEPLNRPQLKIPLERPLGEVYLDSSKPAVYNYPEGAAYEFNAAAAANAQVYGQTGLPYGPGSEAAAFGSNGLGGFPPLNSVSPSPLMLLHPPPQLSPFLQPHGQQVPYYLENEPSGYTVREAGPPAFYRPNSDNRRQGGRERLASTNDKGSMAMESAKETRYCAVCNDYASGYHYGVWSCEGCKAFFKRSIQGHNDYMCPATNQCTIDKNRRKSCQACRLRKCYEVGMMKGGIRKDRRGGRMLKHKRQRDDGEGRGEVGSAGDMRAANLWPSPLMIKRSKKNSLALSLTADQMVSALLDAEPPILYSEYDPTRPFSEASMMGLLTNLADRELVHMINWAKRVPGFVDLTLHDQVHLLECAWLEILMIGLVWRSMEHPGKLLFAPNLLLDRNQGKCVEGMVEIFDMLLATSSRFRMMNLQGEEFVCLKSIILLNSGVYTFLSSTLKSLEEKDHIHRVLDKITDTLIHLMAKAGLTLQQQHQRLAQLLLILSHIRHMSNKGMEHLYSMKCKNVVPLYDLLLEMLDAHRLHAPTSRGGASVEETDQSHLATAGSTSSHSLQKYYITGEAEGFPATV
The data set is described as follows: IL-6 production in U2OS osteosarcoma cells stably transfected with ER-α. The format is cell-based.

Where [1] appears, read: IL-6 after 10 ng/ml IL-1β and 10 ng/ml TNF-α, 50% inhibition relative to DMSO control.

Structures can show the parent of a compound that is named as a salt.

T1 sequence (Q92731 whole entry): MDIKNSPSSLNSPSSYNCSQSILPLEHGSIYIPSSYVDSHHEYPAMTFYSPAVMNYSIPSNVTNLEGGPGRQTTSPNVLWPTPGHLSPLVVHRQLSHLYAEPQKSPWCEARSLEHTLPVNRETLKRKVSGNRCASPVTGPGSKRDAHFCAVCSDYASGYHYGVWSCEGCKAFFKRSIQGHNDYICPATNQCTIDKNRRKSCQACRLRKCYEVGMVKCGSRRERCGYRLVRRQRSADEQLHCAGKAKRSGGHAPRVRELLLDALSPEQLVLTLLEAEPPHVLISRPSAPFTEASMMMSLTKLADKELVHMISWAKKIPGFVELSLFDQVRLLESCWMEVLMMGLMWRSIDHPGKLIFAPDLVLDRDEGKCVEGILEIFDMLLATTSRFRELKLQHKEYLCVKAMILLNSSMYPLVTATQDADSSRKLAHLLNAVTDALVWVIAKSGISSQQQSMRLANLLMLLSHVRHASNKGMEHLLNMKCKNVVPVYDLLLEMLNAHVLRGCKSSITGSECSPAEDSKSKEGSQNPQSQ

Broadly, the IC50 is the concentration that inhibits the measured activity by half. Regarding 4-Hydroxy-Tamoxifen, in the data set with U2OS ER-Minus cells (setting [1]), the 50% inhibitory concentration (IC50) is greater than 1000 nM.

As for `C[C@]12CC[C@@H]3c4ccc(O)cc4CC[C@H]3[C@@H]1CC[C@@H]2O` [17-β-Estradiol], in the data set on U2OS ER-Minus cells (setting [1]), the IC50 is greater than 1000 nM.

`Oc1ccc2c(c1)CCN(c1ccc(F)cc1)C2c1ccc(OCCN2CCCCC2)cc1` (stereo not shown) [Compound A, reference compound]: the IC50 against human full-length ER-β is greater than 10000 nM; at human full-length ER-α it was 1 nM; in the data set on U2OS ER-Minus cells (Homo sapiens, U2OS), greater than 10000 nM.

Take `Oc1ccc2c(c1)CCN(c1ccccc1)C2Cc1ccc(Br)cc1` (stereo not shown) [Example 2, 1-(4-Bromobenzyl)-2-phenyl-1,2,3,4-tetrahydroisoquinolin-6-ol]: the IC50 on human full-length ER-β was 107 nM; against human full-length ER-α, greater than 1000 nM; with U2OS ER-Minus cells (Homo sapiens, U2OS), greater than 1000 nM.

With `Oc1ccc2c(c1)CCN(c1ccc(F)cc1)C2Cc1ccc(OCCN2CCCCC2)cc1` (stereo not shown) [Example 5], the IC50 on human full-length ER-β is 285 nM; on human full-length ER-α, 2010 nM; in the data set on U2OS ER-Minus cells (Homo sapiens, U2OS) it was greater than 10000 nM.

For `Oc1ccc2c(c1)CCCN(c1ccc(F)cc1)C2Cc1ccc(OCCN2CCCCC2)cc1` (stereo not shown) [Example 8], the IC50 at human full-length ER-β was 5000 nM; at human full-length ER-α it was 10000 nM; in the data set with U2OS ER-Minus cells (Homo sapiens, U2OS), greater than 10000 nM.

For orientation: melting point means the temperature of the solid-liquid transition. As to `CCN(CCOc1ccc(CC2c3ccc(O)cc3CCN2c2ccc(F)cc2)cc1)Cc1ccccc1` (stereo not shown) [Example 21, 1-{4-[(2-(N-Benzyl-N-ethyl)amino)ethoxy]benzyl}-2-(4-fluorophenyl)-1,2,3,4-tetrahydroisoquinolin-6-ol], the melting point lay in the range of 47 to 49 °C.

Consider `O=C(c1ccc(OCCN2CCCCC2)cc1)c1c(-c2ccc(O)cc2)sc2cc(O)ccc12` [Raloxifene Hydrochloride], for which the IC50 with U2OS ER-Minus cells (Homo sapiens, U2OS) is greater than 1000 nM.

The values are drawn from patent US6593322B1, “Compounds and methods for modulation of estrogen receptors” (Signal Pharmaceuticals, Inc., priority 1999, dated 2003).
